Measurements taken from patent US20260256755A1, “COMBINATIONS FOR TREATMENT OF PARKINSON'S DISEASE AND OTHER PRIMARY AND SECONDARY PARKINSONIAN DISORDERS” (Kenai Therapeutics, Inc., priority 2023, published 2026).

Assays:
PGC-1a = assay: upregulation of PGC-1a, mode of action relevant to dopaminergic cells; assay type: cell-based; details: for ability to upregulate PGC-1a: target relevant to dopaminergic cells and Parkinson's disease
DA neural cells = assay: Example 2: stress test, medium change followed by serum deprivation; assay type: cell-based; details: concentrations of 0.1 and 0.01 μM
Source text: DA neural cell survival will be measured by either counting surviving attached DA neural cells or by colorimetric determination after applying an electrocoupling reagent that responds to chemical reactions in normal cellular respiration.

cerebral cortex = assay: Example 5: cortical lesion study, neuroprotection and inflammation; assay type: in vivo, long evans hooded rats; details: injected with DA neural cells
Source text: Animals, Surgery, and histology: lesion studies will be conducted on 15 long evans hooded rats weighing 225-275 g. Twelve of these rats will be deeply anesthetized 10 with ketamine/xylazine and placed in a sterotaxic holder. A 4×2 mm (rostrocaudal×mediolateral) skull opening will be made on the right side starting just behind the coronal suture and centered at a mediolateral position of +2.5 mm relative to bregma. A dissecting knife will be penetrated through the dura and cortex in the center of this skull opening to a depth of 1 mm. The skull defect will be filled with bone wax, the skin sutured closed, and the animal placed on a heating pad. Twenty minutes later, 0.4 cc of solution containing 100 μg of 20 peptide (^~0.4 mg/kg, 6 rats) or DMEM vehicle (6 rats) will be injected under the skin of the shoulder near the midline. The rats will be perfused 4 days later and their brains processed for histology and immunohistochemistry as in previous studies. Three rats will be sacrificed without surgery or treatment. […] The density of ED-1+ ameboid microglia in the perilesion parencyma wound will be calculated after experimentally blinded counting of 4 fields (dorsal and ventral margins of the wound) in 2 sections through the lesion.

microglia = details: cited from earlier work

## CCOC(=O)C(C)(C)Oc1ccc(Cl)cc1 [clorofibrate]
PGC-1a
  ability to upregulate PGC-1a: unable to upregulate PGC-1a

## FC(F)(F)c1ccc(CNc2ccc(Cc3c[nH]c4ncc(Cl)cc34)cn2)cn1 [Pexidartinib]
DA neural cells
  rescue of DA neural cells: rescue DA neural cells
Cerebral cortex
  accumulation of inflammatory cells in the parenchyma: inhibited
  disruption of the cerebral cortex: inhibited
microglia; healthy brain
  depletion of the microglia population: fast depletion of the microglia population
microglia; in vivo
  survival of microglia: inhibit the survival of microglia

## CC(C)(Oc1ccc(CCNC(=O)c2ccc(Cl)cc2)cc1)C(=O)O [benzafibrate]
PGC-1a
  ability to upregulate PGC-1a: unable to upregulate PGC-1a

## CC(C)OC(=O)C(C)(C)Oc1ccc(C(=O)c2ccc(Cl)cc2)cc1 [fenofibrate]
PGC-1a; mode of action relevant to dopaminergic cells and Parkinson's disease
  activity (active or not): active
